# Values joined by “and” are separate entries in the source; they are usually repeats but may differ in a detail not shown here. Identical values can stand only once. Like-named read-outs stand apart in the source and are kept apart here.
# Assays:
# [1] = biological target: Selenomonas ruminantium GA192 β-D-xylosidase (SXA, parent SEQ ID NO: 2) variant D14A (Pseudoselenomonas ruminantium, UniProt O52575, D14A); assay: Steady-state kinetics of SXA mutant D14A with 4NP substrates
# Protocol: (§1) Site-directed mutagenesis was performed using the QuikChange site-directed mutagenesis kit (Stratagene) according the manufacturer's instructions. […] Complete sequences were determined on a 3700 sequencer (Applied Biosystems) using T7 promoter and specific primers to confirm that only the intended mutations had been introduced. Lasergene software (DNAStar) was used to analyze the sequence data. pSRA1 and its mutated plasmids were used for the transformation of E. coli BL21(DE3). Transformants were inoculated to 50 mL Luria-Bertani (LB) broth supplemented with 50 mg ampicillin/mL and the flask was shaken overnight at 250 rpm and 37° C. Twenty mL of the overnight culture were transferred to a 2.8-liter baffled flask containing 1.0 liter SOB medium [2.0% tryptone, 0.5% yeast extract, 0.05% NaCl, 0.0186% KCl (all in wt/vol) and 10 mM MgSO4] supplemented with 50 mg ampicillin/mL. The culture was shaken at 250 rpm and 37° C. […] Cells were harvested by centrifugation and cell pellets were stored at −80° C. until use.
# (§2) Initial purification steps and diafiltration steps were performed at 4° C. Chromatography was at room temperature (˜24° C.). Cells were thawed, suspended in 40 mL of 50 mM Tris-HCl, pH 7.5 (Buffer A) containing Complete protease inhibitor cocktail (Roche) and disrupted by sonication. Following centrifugation, the supernatant was brought to 30% saturation with respect to ammonium sulfate and centrifuged. […] The column was washed until absorbance at 280 nm of the eluate became minimal (˜200 mL) and developed with a 500-mL linear gradient (Buffer A+30% saturated ammonium sulfate to Buffer A).
# (§3) Two methods were employed for determining initial rates. […] Initial rates were calculated from fitting the absorbance readings versus time to a line (minimum of 4 points per reaction progression) and by using an extinction coefficient of 17.4 mM^−1 cm^−1. […] The concentration of 4NP substrates was determined by incubating the substrate with excess enzyme until an end point was reached, adding an aliquot (0.01 to 0.1 mL) to 0.1 M NaOH, recording the absorbance at 400 nm and using the extinction coefficient of 18.3 cm^−1mM^−1. Unless indicated otherwise, for both Methods A and B, reactions were initiated by adding a small aliquot of enzyme (generally 7 μl of enzyme diluted into 10 mM sodium phosphate, pH 7.0, and incubated on wet ice or at ˜25° C.) to the 1-mL, temperature-equilibrated (25° C.) reaction mixtures. For pH studies, buffers of constant ionic strength (I=0.3 M), adjusted with NaCl, were used as indicated: 100 mM succinate-NaOH (pH 4.3-6), 100 mM sodium phosphate (pH 6-8), 30 mM sodium pyrophosphate (pH 8-9), glycine-NaOH (pH 9) and glycylglycine-NaOH (pH 9).
# [2] = biological target: T1, Selenomonas ruminantium GA192 β-D-xylosidase (SXA), wild type, SEQ ID NO: 2 (Pseudoselenomonas ruminantium, UniProt O52575); assay: Steady-state kinetics of SXA with 4NPX2, A2 and X2-X6 by HPLC (Example 1); details: for relative kcat value: A2 = 1
# Protocol: (§4) Samples (25 μL) were injected onto the column equilibrated with 0.1 M NaOH and developed with a 15-min linear gradient (0.1 M NaOH to 15 mM sodium acetate) at ˜25° C. and a flow rate of 1 mL min^−1.
# (§5) Before (time=0 min) and after (time=1-6 min) initiating reactions with enzyme (7 μL), samples (0.05-0.1 mL) were removed and quenched with an equal volume of 0.5 M acetic acid and frozen. Following lyophilization, samples were dissolved in H2O and analyzed by HPLC. […] Results from two replicate reactions were combined to provide data points for the progress curves.
# (§6) Before and after addition of enzyme (7 μL), 25-μl aliquots of the reaction mixtures were directly injected onto the HPLC column for quantification of product L-arabinose.
# Quenched samples were analyzed by HPLC for D-xylose. Initial rates were determined from linear regressions of [D-xylose] produced versus reaction time. […] Four 1-mL replicate reactions were conducted to supply data points for the progress curves. Two parallel reactions were conducted, under the same conditions with the same reaction components, the absorbance at 400 nm was continuously monitored (20 min) for 4NP production, and the absorbance values were converted to mM 4NP concentrations by using a delta extinction coefficient (product-substrate) of 8.22 mM^−1 cm^−1.
# SXA [3] = biological target: T2, SXA (Selenomonas ruminantium, UniProt O52575); details: pH 5.3 and 25° C., relative to A2
# Protocol: as §4, §5, §6
# SXA [4] = biological target: T2, SXA; assay: biochemical; details: read-out: Km^4NPX; 100 mM succinate-NaOH, pH 5.3, 25° C.
# [5] = biological target: Selenomonas ruminantium GA192 β-D-xylosidase (SXA, parent SEQ ID NO: 2) variant R290A (Pseudoselenomonas ruminantium, UniProt O52575, R290A); assay: Steady-state kinetics of SXA mutant R290A with 4NPX
# Protocol: as §1, §2, §3
# [6] = biological target: T1, Selenomonas ruminantium GA192 β-D-xylosidase (SXA), wild type, SEQ ID NO: 2; assay: Steady-state kinetics of SXA with 4NP-glycosides (Example 1, Methods A and B)
# Protocol: Kinetics with 4NP Substrates
# (§7) Two methods were employed for determining initial rates. […] Initial rates were calculated from fitting the absorbance readings versus time to a line (minimum of 4 points per reaction progression) and by using an extinction coefficient of 17.4 mM^−1 cm^−1. In Method B (continuous monitoring), temperature-equilibrated reactions (1 mL) were monitored at 380 nm (for pH values below 6) or 400 nm (for pH values of 6 and above). Reactions were generally monitored 0.3 min for initial rate determinations. Delta extinction coefficients (product-substrate) used for molar conversion were determined by subtracting the absorbance of substrate (at pH 5 so even very minor contaminating 4NP would not contribute) from the absorbance of 4NP for each reaction condition. […] The concentration of 4NP substrates was determined by incubating the substrate with excess enzyme until an end point was reached, adding an aliquot (0.01 to 0.1 mL) to 0.1 M NaOH, recording the absorbance at 400 nm and using the extinction coefficient of 18.3 cm^−1mM^−1. Unless indicated otherwise, for both Methods A and B, reactions were initiated by adding a small aliquot of enzyme (generally 7 μl of enzyme diluted into 10 mM sodium phosphate, pH 7.0, and incubated on wet ice or at ˜25° C.) to the 1-mL, temperature-equilibrated (25° C.) reaction mixtures. For pH studies, buffers of constant ionic strength (I=0.3 M), adjusted with NaCl, were used as indicated: 100 mM succinate-NaOH (pH 4.3-6), 100 mM sodium phosphate (pH 6-8), 30 mM sodium pyrophosphate (pH 8-9), glycine-NaOH (pH 9) and glycylglycine-NaOH (pH 9).
# SXA [7] = biological target: T2, SXA; assay: SXA-catalyzed hydrolysis of 4NP-glycoside substrates, initial rates (Methods A and B); format: biochemical;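 note: initial rates from 4-nitrophenol release, tracked by absorbance over roughly 0.3 min and converted using product-minus-substrate extinction differences, in 1 mL mixtures started by enzyme addition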
# Protocol: as §7
# [8] = biological target: T1, Selenomonas ruminantium GA192 β-D-xylosidase (SXA), wild type, SEQ ID NO: 2; assay: Steady-state kinetics of SXA with X2-X6, improved quenching, HPLC (Example 3); details: for factor by which kcat is higher than that of the Bacillus pumilus enzyme: SXA pH 5.3 vs B. pumilus pH 7.15, 25° C
# Protocol: Samples (25 μL) were injected onto the column equilibrated with 0.1 M NaOH and developed with a 5-min linear gradient (0.1 M NaOH to 33 mM sodium acetate) at ˜25° C. and a flow rate of 1 mL min^−1.
# Samples were kept on wet ice or the HPLC autosampler at 5° C. until analyzed by HPLC. Initial rates, calculated from linear regressions of the [D-xylose] produced versus time, were fitted to Eq. 1 to determine steady-state kinetic parameters.
# [9] = biological target: Selenomonas ruminantium GA192 β-D-xylosidase (SXA, parent SEQ ID NO: 2) variant E186A (Pseudoselenomonas ruminantium, UniProt O52575, E186A); assay: Steady-state kinetics of SXA mutant E186A with 4NP substrates
# Protocol: as §1, §2, §3
# [10] = biological target: Selenomonas ruminantium GA192 β-D-xylosidase (SXA, parent SEQ ID NO: 2) variant D127A (Pseudoselenomonas ruminantium, UniProt O52575, D127A); assay: Steady-state kinetics of SXA mutant D127A with 4NPX
# Protocol: as §1
# (§8) Initial purification steps and diafiltration steps were performed at 4° C. Chromatography was at room temperature (˜24° C.). Cells were thawed, suspended in 40 mL of 50 mM Tris-HCl, pH 7.5 (Buffer A) containing Complete protease inhibitor cocktail (Roche) and disrupted by sonication. […] The column was washed until absorbance at 280 nm of the eluate became minimal (˜200 mL) and developed with a 500-mL linear gradient (Buffer A+30% saturated ammonium sulfate to Buffer A).
# (§9) Two methods were employed for determining initial rates. […] Initial rates were calculated from fitting the absorbance readings versus time to a line (minimum of 4 points per reaction progression) and by using an extinction coefficient of 17.4 mM^−1 cm^−1. […] The concentration of 4NP substrates was determined by incubating the substrate with excess enzyme until an end point was reached, adding an aliquot (0.01 to 0.1 mL) to 0.1 M NaOH, recording the absorbance at 400 nm and using the extinction coefficient of 18.3 cm^−1mM^−1. […]
# SXA [11] = biological target: T2, SXA; details: read-out: Km^4NPX; pH 5.3, 25° C., HPLC of D-xylose
# Description: Concentrations of D-xylose produced versus time were fitted to lines for determination of initial rates. For determination of steady-state kinetic parameters, initial rates were fitted to Eq. 2 (competitive inhibition).
# [12] = biological target: Selenomonas ruminantium GA192 β-D-xylosidase (SXA, parent SEQ ID NO: 2) variant H248A (Pseudoselenomonas ruminantium, UniProt O52575, H248A); assay: Steady-state kinetics of SXA mutant H248A with 4NPX
# Protocol: as §1, §8, §9
# [13] = test system: Bacillus pumilus β-xylosidase; details: pH 7, 25° C.; cited from earlier work
# [14] = 100 mM succinate-NaOH, pH 5.3, 25° C, Method A
# [15] = Exper. 1: succinate pH 5.3, Method A, η/ηo 1.00
# [16] = Exper. 1: succinate pH 5.3, Method A, η/ηo 6.12 (50% sucrose)
# [17] = Exper. 2: MES pH 6.00, Method B, η/ηo 1.00
# [18] = Exper. 2: MES pH 6.00, Method B, η/ηo 6.85 (50% sucrose)
# [19] = I=0.3 M, 25° C., Eq. 7 (4NPX), Eq. 5 (4NPA)
# [20] = 100 mM succinate-NaOH, pH 5.3, 25° C
smiles,measurement,setting,value
"O=[N+]([O-])c1ccc(O[C@@H]2OC[C@@H](O)[C@H](O)[C@H]2O)cc1 [4NPX, 4-nitrophenyl-β-D-xylopyranoside]",kcat,[1]; [14],0.00954 ± 0.00016 s⁻¹
same,factor by which kcat is degraded vs wild type,"[1]; pH 5.3, 25° C.",3300
same,relative kcat value,"[2]; pH 5.3, 25° C",340
same,relative kcat values,SXA [3],340
same,Km,SXA [4],716 ± 32 µM
same,kcat,"[5]; 100 mM succinate-NaOH, pH 5.3, 25° C, Method A, not well determined (highest 4NPX 5 mM)",0.0126 ± 0.0020 s⁻¹
same,factor by which kcat is degraded vs wild type,"[5]; pH 5.3, 25° C.",2500
same,increase of Km(4NPX) vs wild type,"[5]; pH 5.3, 25° C.",70 fold
same,kcat,"[6]; 100 mM MES-NaOH, pH 6.00, 25° C, Method B, 50% sucrose, η/ηo 6.85",30.1 ± 1.1 s⁻¹
same,kcat,"[6]; 100 mM MES-NaOH, pH 6.00, 25° C, Method B, η/ηo 1.00",32.9 ± 0.5 s⁻¹
same,kcat,"[6]; 100 mM succinate-NaOH, pH 5.3, 25° C, Method A, no sucrose",32.8 ± 0.6 s⁻¹ and 31.1 ± 0.4 s⁻¹
same,"affinity of dianionic SXA (D14^−E186^−), higher than that of monoanionic SXA (D14^−E186^H)",[6]; from pH dependence of 1/Km,~2 fold and 1.9 fold
same,kcat,"[6]; pH 5.3, 25° C, Method A, 50% sucrose, η/ηo 6.12",29.8 ± 0.5 s⁻¹
same,kcat Rel. to η/ηo = 1,"[6]; pH 5.3, η/ηo 6.12",0.910 ± 0.0152
same,kcat Rel. to η/ηo = 1,"[6]; pH 6.00, η/ηo 6.85",0.920 ± 0.040
same,pH-independent kcat,"[6]; pH profile, I=0.3 M, Method B",32.7±0.5 s^−1
same,pH-independent kcat,SXA [7],32.7±0.5 s^−1
same,pH-independent kcat/Km,SXA [7],58.7±1.3 s^−1 mM^−1
same,Relative Rate,"SXA [7]; 5 mM 4NP glycoside, 100 mM succinate-NaOH, pH 5.3, 25° C., Method A, initial rate relative to 4NPX",1.00 ± 0.01
same,Km,"SXA [7]; 100 mM sodium phosphate, pH 7.0, 25° C., Method B",443 ± 8 µM
same,pH-independent 1/Km,"SXA [7]; 1/Km versus pH, Eq. 4 (4NPX), Eq. 5 (4NPA)",2.65±0.081 mM^−1
same,pKa of 1/Km versus pH (single protonatable group),SXA [7]; Eq. 4,5.6 and 5.56±0.08
same,Km,SXA [7]; [15],742 ± 41 µM
same,kcat Rel. to η/ηo = 1,SXA [7]; [15],1.00
same,Km,SXA [7]; [16],690 ± 35 µM
same,kcat Rel. to η/ηo = 1,SXA [7]; [16],0.910 ± 0.0152
same,Km,SXA [7]; [17],699 ± 35 µM
same,kcat Rel. to η/ηo = 1,SXA [7]; [17],1.00
same,Km,SXA [7]; [18],637 ± 81 µM
same,kcat Rel. to η/ηo = 1,SXA [7]; [18],0.920 ± 0.040
same,pKa1 of kcat versus pH,"SXA [7]; I=0.3 M, 25° C., Eq. 5",3.5 and ~3.6 and 3.54±0.10
same,pKa1 of kcat/Km versus pH,"SXA [7]; I=0.3 M, 25° C., Eq. 5",~5.0 and 5.00±0.04
same,pKa2 of kcat versus pH,"SXA [7]; I=0.3 M, 25° C., Eq. 5",6.9 and 6.90±0.03
same,pKa2 of kcat/Km versus pH,"SXA [7]; I=0.3 M, 25° C., Eq. 5",7.23±0.04
same,pKa1 of 1/Km versus pH,SXA [7]; [19],4.8 and 4.81±0.21
same,pKa2 of 1/Km versus pH,SXA [7]; [19],6.4 and 6.39±0.26
same,higher affinity of dianionic SXA (D14^−E186^−) than monoanionic SXA (D14^−E186^H),SXA [7]; from pH dependency of 1/Km,~2 fold and 1.9 fold
same,factor by which kcat of SXA is higher than that of the B. pumilus enzyme,"SXA [7]; substrate 4NPX, SXA pH 5.3, 25° C. (Example 1) vs B. pumilus pH 7.15, 25° C.",4
same,factor by which kcat is higher than that of the Bacillus pumilus enzyme,[8],4
same,kcat,[9]; [14],0.00267 ± 0.00005 s⁻¹
same,factor by which kcat is degraded vs wild type,"[9]; pH 5.3, 25° C.",12000
same,kcat,[10]; [14],0.000129 ± 0.000003 s⁻¹
same,factor by which kcat is degraded vs wild type,"[10]; pH 5.3, 25° C.",24000
same,Km,SXA [11],758 ± 59 µM
same,kcat,[12]; [14],0.0950 ± 0.0025 s⁻¹
same,factor by which kcat is degraded vs wild type,"[12]; pH 5.3, 25° C.",330
"OC1OC[C@@H](O[C@@H]2OC[C@@H](O)[C@H](O)[C@H]2O)[C@H](O)[C@H]1O (stereo partly drawn) [X2, 1,4-β-D-xylobiose]",kcat,[2]; [20],412 s⁻¹ and 412 ± 18 s⁻¹
same,kcat,"[2]; pH 5.3, 25° C (Example 1), approximate",approximately 410 sec^−1
same,relative kcat value,"[2]; pH 5.3, 25° C",5600
same,kcat relative to that of substrates X3-X6,"[2]; pH 5.3, 25° C.",2-4 fold
same,kcat ratio X2 vs 4NPX,"[2]; same reaction conditions, pH 5.3, 25° C.",12 fold and 13 fold
same,kcat,[13],18 s⁻¹
same,kcat,[8]; [20],185 ± 3 s⁻¹
same,factor by which kcat is higher than that of the Bacillus pumilus enzyme,[8],10
same,"affinity of dianionic SXA (D14^−E186^−), lower than that of monoanionic SXA (D14^−E186^H)",[8]; from pH dependence of 1/Km,2.9 fold and 3 fold
same,kcat,"[8]; pH 5.3, 25° C (improved technique), approximate",approximately 185 sec^−1
same,pH-independent kcat,"[8]; pH profile, I=0.3 M, 25° C",172±2

# Source: patent US7993884B2, “Beta-xylosidase for conversion of plant cell wall carbohydrates to simple sugars” (The United States of America as represented by the …, priority 2006, dated 2011)
